The values that follow come from publication PMC3761967 (Bioorganic & medicinal chemistry, 2012).

The subject of one series is wild FTase. To be noted: peptide substrate; cited from earlier work.
In a further series the target is T1, yeast FTase (Saccharomyces cerevisiae, UniProt P22007+P29703).
T1 sequence (P29703 1-316): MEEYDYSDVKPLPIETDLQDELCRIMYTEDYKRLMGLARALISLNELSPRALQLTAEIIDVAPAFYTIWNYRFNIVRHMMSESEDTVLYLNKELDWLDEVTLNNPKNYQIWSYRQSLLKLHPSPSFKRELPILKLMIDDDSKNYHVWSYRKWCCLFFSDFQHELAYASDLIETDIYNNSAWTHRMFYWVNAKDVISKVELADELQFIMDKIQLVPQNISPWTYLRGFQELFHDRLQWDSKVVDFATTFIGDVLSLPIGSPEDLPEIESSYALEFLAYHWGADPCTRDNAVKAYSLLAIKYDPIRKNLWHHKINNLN
T1 sequence (P22007 1-431): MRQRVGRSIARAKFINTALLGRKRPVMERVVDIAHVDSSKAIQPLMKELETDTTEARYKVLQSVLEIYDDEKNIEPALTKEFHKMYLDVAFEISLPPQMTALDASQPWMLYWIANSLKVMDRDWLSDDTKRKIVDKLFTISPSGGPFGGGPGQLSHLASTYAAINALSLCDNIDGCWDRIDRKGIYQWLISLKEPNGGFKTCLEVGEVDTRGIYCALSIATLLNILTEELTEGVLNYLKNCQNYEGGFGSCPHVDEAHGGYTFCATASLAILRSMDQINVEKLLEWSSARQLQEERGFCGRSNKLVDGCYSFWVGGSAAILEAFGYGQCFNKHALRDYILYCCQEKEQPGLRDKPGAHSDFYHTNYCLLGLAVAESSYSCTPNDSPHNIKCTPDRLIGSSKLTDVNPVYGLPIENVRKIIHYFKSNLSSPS
Briefly: Yeast FTase continuous fluorescence assay. The conditions noted are these: yeast FTase IC50, 27 vs 2. Format: biochemical.

For series [1] the following is noted: mild basic conditions (pH=7.5), hydrolysed to dicarboxylate anion 2; ref 10a; cited from earlier work.
In series [2] the test system is Ras processing in ras-transformed NIH3T3. The conditions noted are these: cited from earlier work.
The test system of series [3] is PBP1b (penicillin-binding protein 1b). To be noted: cited from earlier work.
In another series the test system is Ras/ERK1/2 pathway. The conditions noted are these: rats; cited from earlier work.
The next series concerns tobacco BY-2 cells. To be noted: cited from earlier work.
For series [4], the system named is membrane-bound Ha-Ras / Ki-Ras. The conditions noted are these: cited from earlier work.
Another series relates to Ha-Ras. To be noted: murine ischemic stroke model; cited from earlier work.
The test system of another series is rubber transferase. To be noted: rubber transferase from Hevea Brasiliensis; cited from earlier work.
The test system of the next series is recombinant human FTase. To be noted: cited from earlier work.

Where no end group is shown, it is not given here. The star is where a group is joined. Dansyl = CN(C)c1cccc2c(S(=O)(=O)*)cccc12

The kcat is the maximal rate divided by the concentration of active sites. In the case of “dansyl-Gly-Cys-Val-Ile-Ala (Dansyl-GCVIA)”, the kcat in the series on wild FTase is greater than 0.2 s⁻¹.

With `CCCCSCCCCCCCCC/C(C(=O)[O-])=C(\C)C(=O)[O-].[Na+].[Na+]` [compound 27, disodium salt of 2-(9-(butylthio)nonyl)-3-methylmaleic acid], the “times more potent than ACA” value on yeast FTase is given as “approximately 5”.

Take `CCCCCCCCCCCCCCC1=C(C)C(=O)OC1=O` [compound 3, chaetomellic anhydride A]: in series [1], the “Stability of the cyclic (anhydride) form” value is listed as “unstable”.

For “dansyl-Gly-Cys-Val-Leu-Ser (Dansyl-GCVLS)”, the kcat in the series with wild FTase is 0.4 s⁻¹.

Take `CCCCCCCCCCCCCC/C(C(=O)O)=C(\C)C(=O)O` [compound 1, chaetomellic acid A]: the “Inhibition of Ras processing” value in [2] was “did not inhibit”. Further, the “Reduction of PBP1b activity” value in series [3] is listed as “modest potency”. Further, in the series on Ras/ERK1/2 pathway, the “Effect on acute ischemia-reperfusion injury (renal function and histology)” value is recorded as “beneficial effect”. In addition, the “Effect on cell cycle progression” value in the series with tobacco BY-2 cells was “specific arrest in the cell cycle”. In [4], the “Effect on membrane-bound Ha-Ras” value is on record as “selectively inhibited” and the “Effect on membrane-bound Ki-Ras” value is recorded as “did not alter”. The “Production of superoxide anion and volume of cerebral necrotic tissue” value in the series on Ha-Ras was “significantly reducing”. Moreover, the “Inhibition of rubber biosynthesis in vitro” value in the series on rubber transferase was “able to inhibit”. Further, in the series on recombinant human FTase (diacid anion of 1), the “Mode of FTase inhibition towards the acceptor peptide Ras” value is “noncompetitive” and the “Mode of FTase inhibition with respect to farnesyl pyrophosphate (FPP)” value is given as “highly competitive”.

What is called IC50 is the point on the concentration scale where inhibition reaches its midpoint. `CCCCCCCCCCCCCC/C(C(=O)O)=C(\C)C(=O)O` [compound 2]: the IC50 on recombinant human FTase (read-out: IC50 recombinant human FTase, dianionic form) is 0.055 µM.
